Data as given in patent US9669005B2, “Use of naringenin in preparing drugs for preventing and/or treatment abdominal aortic aneurysm” (priority 2013, dated 2017).

Columns and labels:
[1] = Body weight and blood fat of CaPO4 treated C57BL/6J mice; format: in vivo; conditions: CaPO4 treated C57BL/6J mice; gavage 7 days; naringenin 50 mg/kg, doxycycline 100 mg/kg
Procedure: (§1) Gavage was started at the first day after surgery, and water, naringenin (50 mg/kg) (Sigma-Aldrich, St. Louis, Mo.) or doxycycline (100 mg/kg) (Sigma-Aldrich, St. Louis, Mo.) gavage were given on mice daily. Materials were removed from the mice 7 days after gavage. Mice were weighed, and blood was drawn from inner canthus by capillary, after centrifuged for 10 minutes at 6000 rotations, the supernatant was removed and blood fat was measured (kit is purchased from BIOSINO company). Then perfusion and washing were performed on mice using PBS. Blood vessels were separated, and four blood vessels were randomly chosen for each group for photographing. The results were shown in FIG. 1, wherein, NaCl was the group of daubing NaCl (n=11), CaPO4 was the group of daubing CaPO4 plus water feed (n=12), CaPO4+NGN was the group of daubing CaPO4 μlus naringenin gavage (n=11), and CaPO4+Dox was the group of daubing CaPO4 μlus doxycycline gavage (n=11).

[2] = system: abdominal aortic aneurysms in C57BL/6J mice with CaPO4 daubed infrarenal arteries; assay: Abdominal aortic aneurysm model induced by CaPO4 daubed infrarenal aortas, naringenin or doxycycline gavage; format: in vivo; conditions: CaPO4 daubed C57BL/6 mice; daily gavage 7 days; naringenin 50 mg/kg, doxycycline 100 mg/kg; average ± SD; CaPO4 + water 1.40±0.19, NaCl 0.77±0.06
Procedure: 12-week old of male C57BL/6 mice were anesthetized via intraperitoneal injection of 0.1% pentobarbital sodium (injection according to body weight, […]). Infrarenal abdominal aortas were separated, and the separated infrarenal abdominal aortas were packaged by gauze (1 cm in width×3 cm in length) soaked in 0.5 M CaCl2 solution. After 10 minutes, the gauze was removed, gauze soaked in PBS was instead used to package the blood vessel for 5 min. CaCl2+and PO4^−3 in PBS can form CaPO4 crystal, that is, corresponding to daubing CaPO4 to the blood vessel. After packaging the blood vessel with gauze soaked in NaCl for 10 minutes, gauze soaked in PBS is instead used for 5 min, serving as NaCl daubed control group.
as §1
The blood vessels were sliced, and the change of the diameters in infrarenal abdominal aortas of mice were identified by H.E. staining. […] The data in FIG. 2A were an average value±standard deviation.
The fracture degree of elastic lamina is also an index showing the severity of abdominal aortic aneurysms. The degradation of elastic lamina is divided into four grades. The first grade means that the degradation of elastic lamina is less than 25%, with the second grade of 25%-50%, the third grade of 50%-75%, and the fourth grade means the fracture is more than 75%. We used Gomori staining to identify the fracture situation of elastic lamina of infrarenal abdominal aortas of mice. […] The data in FIG. 2B were an average value±standard deviation.

C[C@H]1c2cccc(O)c2C(=O)C2=C(O)[C@]3(O)C(=O)C(C(N)=O)=C(O)[C@@H](N(C)C)[C@@H]3[C@@H](O)[C@@H]21 [doxycycline, reference compound]
Body weight [1]: 21.0 ± 1.89 g | Cholesterol [1]: 3.49 ± 0.64 mmol | Triglyceride [1]: 1.07 ± 0.32 mmol | diameters of infrarenal abdominal aortas (H.E. staining) [2]: 0.99±0.18 mm
